One data set can be described thus: in vitro. Particulars: PAMPA, PAMPA_Papp_Avg. On the technique in general: PAMPA measures passive passage across an artificial lipid membrane.
For data set [1] the following is noted: PAMPA.

The record followed here is article PMC9490236, “Accurate de novo design of membrane-traversing macrocycles” (Cell, 2022).

Molecules are shown by their SMILES. Where a SMILES comes first, the peptide text is derived from it. [ ]: non-standard residue; d: D form. NMeF = CN[C@@H](Cc1ccccc1)C(=O)O; dNMeF = CN[C@H](Cc1ccccc1)C(=O)O; NMeL = CN[C@@H](CC(C)C)C(=O)O; dNMeL = CN[C@H](CC(C)C)C(=O)O; NMeA = CN[C@@H](C)C(=O)O; dNMeA = CN[C@H](C)C(=O)O; Sar = CNCC(=O)O

For `CC(C)C[C@@H]1NC(=O)[C@@H](C)N(C)C(=O)[C@@H](CC(C)C)N(C)C(=O)[C@@H]2CCCN2C(=O)[C@H]2CCCN2C(=O)[C@@H](C)NC(=O)[C@@H]2CCCN2C(=O)[C@H]2CCCN2C(=O)[C@@H](CC(C)C)NC1=O` [Design D9.27, DLEU DPRO PRO DALA DPRO PRO *DLEU *DALA LEU] (cyclo([dA][dP]P[dNMeL][dNMeA]L[dL][dP]P)), the apparent permeability (Papp) (usually the rate of passage across a membrane or cell layer, normalised by area and donor concentration) in “in vitro” was 0.0334 ×10⁻⁶ cm/s. In data set [1], this molecule displayed a PAMPA_R1 of 3.26E-08 and a PAMPA_R3 of 3.49E-08.
For `CC[C@H](C)[C@@H]1NC(=O)[C@@H]2CCCN2C(=O)[C@H]2CCCN2C(=O)[C@@H](CC(C)C)NC(=O)[C@@H](CC(C)C)N(C)C(=O)[C@@H]2CCCN2C(=O)[C@H](Cc2ccccc2)N(C)C(=O)[C@@H](Cc2ccccc2)NC1=O` [Design D8.14, PRO ILE DPHE*PHE PRO *DLEU DLEU DPRO] (cyclo(I[dF][NMeF]P[dNMeL][dL][dP]P)), in that order: 0.971 ×10⁻⁶ cm/s, 1.14E-06 and 7.14E-07.
The molecule `CC[C@H](C)[C@@H]1NC(=O)[C@@H](C)N(C)C(=O)[C@H]2CCCN2C(=O)[C@H]2CCCN2C(=O)[C@H](Cc2ccccc2)NC(=O)[C@@H](CC(C)C)NC(=O)[C@@H](CC(C)C)N(C)C(=O)[C@@H]2CCCN2C1=O` [Design D8.17, PRO *DLEU DLEU PHE DPRO DPRO *DALA ILE] (cyclo(F[dP][dP][dNMeA]IP[dNMeL][dL])) yielded an apparent permeability (Papp) in “in vitro” of 0.72 ×10⁻⁶ cm/s. Besides, in data set [1], the PAMPA_R1 was determined as 5.94E-07 and the PAMPA_R3 is 8.83E-07.
In the case of `CC[C@H](C)[C@@H]1NC(=O)[C@@H](C)NC(=O)[C@@H]2CCCN2C(=O)[C@H]2CCCN2C(=O)[C@@H]2CCCN2C(=O)[C@@H](C)NC(=O)[C@@H](Cc2ccccc2)NC(=O)[C@@H](CC(C)C)N(C)C(=O)[C@@H](CC(C)C)N(C)C1=O` [Design D9.15, PRO DPRO PRO DALA ILE *DLEU *DLEU DPHE DALA] (cyclo([dA]I[dNMeL][dNMeL][dF][dA]P[dP]P)), the apparent permeability (Papp) in “in vitro” is 0.85 ×10⁻⁶ cm/s. In data set [1], this molecule yielded a PAMPA_R1 of 9.95E-07 and a PAMPA_R3 of 6.20E-07.
`CC(C)C[C@H]1NC(=O)[C@H]2CCCN2C(=O)[C@H](CC(C)C)N(C)C(=O)[C@@H](C)N(C)C(=O)[C@@H](Cc2ccccc2)NC(=O)[C@@H](C(C)C)NC(=O)[C@H]2CCCN2C(=O)[C@@H](CC(C)C)NC1=O` [Design D8.19, DPHE *DALA *LEU DPRO DLEU DLEU DPRO DVAL] (cyclo([NMeL][dP][dL][dL][dP][dV][dF][dNMeA])) displayed an apparent permeability (Papp) in “in vitro” of 2.88 ×10⁻⁶ cm/s. Further, in data set [1], the PAMPA_R1 is reported as 3.45E-06 and the PAMPA_R3 stood at 2.33E-06.
In the data set “in vitro”, `CC[C@@H](C)[C@H]1NC(=O)[C@H](CC(C)C)N(C)C(=O)[C@H]2CCCN2C(=O)[C@H](CC(C)C)NC(=O)[C@@H](Cc2ccccc2)N(C)C(=O)[C@H](CC(C)C)N(C)C(=O)[C@@H](C(C)C)NC(=O)[C@H](C)NC(=O)[C@H]2CCCN2C(=O)[C@@H]2CCCN2C1=O` (single isomer, unassigned) [Design D10.60.p1, *LEU *DPHE LEU DPRO *LEU DILE PRO DPRO ALA DVAL] registered a Papp of 0.65 ×10⁻⁶ cm/s. In addition, in data set [1], the PAMPA_R1 turned out to be 6.58E-07 and the PAMPA_R3 is reported as 1.13E-06.
Molecule `CC[C@H](C)[C@@H]1NC(=O)[C@@H](C)N(C)C(=O)[C@@H](C)N(C)C(=O)[C@@H]2CCCN2C(=O)[C@H](CC(C)C)NC(=O)[C@H](CC(C)C)NC(=O)[C@@H](CC(C)C)NC(=O)[C@@H]2CCCN2C(=O)[C@H]2CCCN2C1=O` [Design D9.11, PRO DLEU LEU LEU PRO *DALA *DALA ILE DPRO] (cyclo([dL]LLP[dNMeA][dNMeA]I[dP]P)) came in with an apparent permeability (Papp) in the data set “in vitro” of 0.223 ×10⁻⁶ cm/s. Besides, in data set [1], the PAMPA_R1 worked out at 2.61E-07 and the PAMPA_R3 is listed as 2.10E-07.
Turning to `CC[C@H](C)[C@@H]1NC(=O)[C@@H]2CCCN2C(=O)CN(C)C(=O)[C@@H](CC(C)C)NC(=O)[C@@H](CC(C)C)N(C)C(=O)[C@@H]2CCCN2C(=O)[C@H](Cc2ccccc2)N(C)C(=O)[C@@H](Cc2ccccc2)NC1=O` [Design D8.15, PRO ILE DPHE*PHE PRO *DLEU DLEU *GLY] (cyclo(I[dF][NMeF]P[dNMeL][dL][Sar]P)), the Papp in the data set “in vitro” came out at 0.768 ×10⁻⁶ cm/s. Further, in data set [1], the PAMPA_R1 turned out to be 8.94E-07 and the PAMPA_R3 is recorded as 9.27E-07.
For `CC(C)C[C@H]1NC(=O)[C@@H](C)NC(=O)[C@@H](C)NC(=O)[C@H]2CCCN2C(=O)[C@@H]2CCCN2C(=O)[C@H]2CCCN2C(=O)[C@@H](C)NC(=O)[C@@H](Cc2ccccc2)N(C)C(=O)[C@H]2CCCN2C(=O)[C@@H](CC(C)C)NC(=O)[C@@H](CC(C)C)NC1=O` [Design D11.25, DLEU DPRO *DPHE DALA DPRO PRO DPRO DALA DALA DLEU DLEU] (cyclo([dP][dA][dA][dL][dL][dL][dP][dNMeF][dA][dP]P)), in that order: 0.405 ×10⁻⁶ cm/s, 3.92E-07 and 3.97E-07.
With `CC(C)C[C@@H]1C(=O)N[C@@H](C)C(=O)N[C@H](CC(C)C)C(=O)N(C)[C@@H](C)C(=O)N2CCC[C@@H]2C(=O)N2CCC[C@@H]2C(=O)N2CCC[C@@H]2C(=O)N2CCC[C@H]2C(=O)N[C@H](C(C)C)C(=O)N(C)[C@@H](CC(C)C)C(=O)N1C` [Design D10.28, DLEU *ALA DPRO DPRO DPRO PRO DVAL *LEU *DLEU ALA] (cyclo([dV][NMeL][dNMeL]A[dL][NMeA][dP][dP][dP]P)), in the data set “in vitro”, the Papp stood at 0.184 ×10⁻⁶ cm/s. In data set [1], this molecule registered a PAMPA_R1 of 1.56E-07 and a PAMPA_R3 of 2.34E-07.
`CC(C)C[C@@H]1C(=O)N[C@H](CC(C)C)C(=O)N2CCC[C@@H]2C(=O)N2CCC[C@H]2C(=O)N(C)[C@H](CC(C)C)C(=O)N[C@H](CC(C)C)C(=O)N2CCC[C@@H]2C(=O)N2CCC[C@H]2C(=O)N1C` [Design D8.4, DPRO PRO *DLEU DLEU DPRO PRO *DLEU DLEU] (cyclo([dNMeL][dL][dP]P[dNMeL][dL][dP]P)) returned a Papp in the data set “in vitro” of 0.136 ×10⁻⁶ cm/s. In data set [1], this molecule yielded a PAMPA_R1 of 1.49E-07 and a PAMPA_R3 of 1.12E-07.
In the case of `CC[C@H](C)[C@@H]1NC(=O)[C@H](Cc2ccccc2)N(C)C(=O)[C@H](CC(C)C)N(C)C(=O)[C@@H](C(C)C)NC(=O)[C@@H](C)NC(=O)[C@@H]2CCCN2C(=O)[C@@H](CC(C)C)NC(=O)[C@@H]2CCCN2C(=O)[C@H](C)NC1=O` [Design D9.6, PRO DALA DVAL *LEU *PHE ILE ALA PRO DLEU], in the data set “in vitro”, the Papp amounted to 1.63 ×10⁻⁶ cm/s. Besides, in data set [1], the PAMPA_R1 came out at 1.38E-06 and the PAMPA_R3 is 1.96E-06.
The molecule `CC[C@H](C)[C@@H]1NC(=O)[C@H]2CCCN2C(=O)[C@@H]2CCCN2C(=O)[C@H](CC(C)C)NC(=O)[C@@H](C(C)C)NC(=O)[C@@H](CC(C)C)N(C)C(=O)[C@@H]2CCCN2C1=O` [Design D7.1, PRO *DLEU DVAL LEU PRO DPRO ILE] (cyclo(IP[dNMeL][dV]LP[dP])) showed an apparent permeability (Papp) in “in vitro” of 2.93 ×10⁻⁶ cm/s. In data set [1], the PAMPA_R1 is 2.76e-06 cm/s and the PAMPA_R3 is 3.53e-06 cm/s.
In turn, `CC[C@@H](C)[C@H]1NC(=O)[C@H]2CCCN2C(=O)[C@@H]2CCCN2C(=O)[C@@H](CC(C)C)NC(=O)[C@H](C)NC(=O)[C@@H](CC(C)C)N(C)C(=O)[C@@H](C)N(C)C(=O)[C@@H]2CCCN2C(=O)[C@@H]([C@H](C)CC)NC(=O)[C@@H](CC(C)C)N(C)C1=O` [Design D10.39, PRO *DALA *DLEU ALA DLEU PRO DPRO DILE *DLEU DILE] (cyclo(A[dL]P[dP][dI][dNMeL][dI]P[dNMeA][dNMeL])) came in with a Papp in “in vitro” of 1.48 ×10⁻⁶ cm/s. In data set [1], this molecule gave a PAMPA_R1 of 1.69E-06 and a PAMPA_R3 of 1.47E-06.
`CC(C)C[C@H]1NC(=O)[C@@H]2CCCN2C(=O)[C@@H]2CCCN2C(=O)[C@@H](C)NC(=O)[C@@H](Cc2ccccc2)NC(=O)[C@H]2CCCN2C1=O` [Design D6.3, DPRO DPHE DALA PRO PRO DLEU] (cyclo(PP[dL][dP][dF][dA])) displayed a Papp in “in vitro” of 1.99 ×10⁻⁶ cm/s. In data set [1], this molecule registered a PAMPA_R1 of 5.23e-06 cm/s and a PAMPA_R3 of 7.03e-07 cm/s.
Take `CC(C)C[C@H]1NC(=O)[C@H]2CCCN2C(=O)[C@@H]2CCCN2C(=O)[C@@H](Cc2ccccc2)NC(=O)[C@@H](C(C)C)NC(=O)[C@H](CC(C)C)N(C)C(=O)[C@@H](Cc2ccccc2)NC1=O` (single isomer, unassigned) [Design D7.7.p1, PRO DPRO DLEU DPHE *LEU DVAL DPHE]: the Papp in the data set “in vitro” turned out to be 8.43 ×10⁻⁶ cm/s. In data set [1], this molecule displayed a PAMPA_R1 of 8.16e-06 cm/s and a PAMPA_R3 of 9.31e-06 cm/s.
`CC(C)C[C@H]1C(=O)N2CCC[C@@H]2C(=O)N[C@@H](Cc2ccccc2)C(=O)N2CCC[C@H]2C(=O)N[C@H](C(C)C)C(=O)N[C@H](Cc2ccccc2)C(=O)N1C` (single isomer, unassigned) [Design D6.9.p1, DVAL DPHE *LEU DPRO PHE PRO]: the Papp in the data set “in vitro” turned out to be 5.29 ×10⁻⁶ cm/s. For the same molecule, in data set [1], the PAMPA_R1 was 4.01e-06 cm/s and the PAMPA_R3 came out at 6.97e-06 cm/s.
Consider `CC(C)[C@H]1NC(=O)[C@@H]2CCCN2C(=O)[C@@H](C)NC(=O)[C@@H](Cc2ccccc2)NC(=O)[C@@H]2CCCN2C(=O)[C@H](Cc2ccccc2)NC1=O` [Design D6.7, DPHE DALA PRO DVAL PHE PRO] (cyclo(FP[dF][dA]P[dV])), for which, in the data set “in vitro”, the apparent permeability (Papp) turned out to be 0.424 ×10⁻⁶ cm/s. In data set [1], this molecule yielded a PAMPA_R1 of 6.27e-07 cm/s and a PAMPA_R3 of 3.67e-07 cm/s.
Molecule `CC[C@H](C)[C@@H]1NC(=O)[C@H](Cc2ccccc2)NC(=O)[C@H]2CCCN2C(=O)[C@H]([C@@H](C)CC)NC(=O)[C@H](C(C)C)NC(=O)[C@@H](C)NC(=O)[C@H]2CCCN2C1=O` (single isomer, unassigned) [Design D7.8.p1, VAL ILE DPRO PHE ILE DPRO DALA] registered a Papp in the data set “in vitro” of 4.87 ×10⁻⁶ cm/s. Also, in data set [1], the PAMPA_R1 is 4.5e-06 cm/s and the PAMPA_R3 worked out at 6.04e-06 cm/s.
For `CC(C)C[C@@H]1NC(=O)[C@@H](Cc2ccccc2)NC(=O)[C@@H](CC(C)C)N(C)C(=O)[C@@H]2CCCN2C(=O)[C@H](C)NC(=O)[C@@H](CC(C)C)N(C)C(=O)[C@@H]2CCCN2C(=O)[C@H](CC(C)C)N(C)C(=O)[C@H](CC(C)C)N(C)C(=O)[C@H](C(C)C)NC1=O` [Design D10.20, PRO *DLEU ALA PRO *DLEU DPHE LEU VAL *LEU *LEU] (cyclo(AP[dNMeL][dF]LV[NMeL][NMeL]P[dNMeL])), in that order: 2.59 ×10⁻⁶ cm/s, 1.95E-06 and 3.37E-06.
